Holding throughout (format): binding, souris
Experiment [1] deals with anticorps monoclonal anti-PG E2 secrété par les hybridomes 42-61-48 (CNCM 1-255), type IgG Cb Kapa. The experiment in a line: competition radioimmunoassay (affinity by Scatchard plot, specificity by displacement of tritiated PG E2). Conditions: 12 h at 4°C; for quantité qu'il faut pour déplacer 2,5 pg de PG E2 tritiée liée à l'anticorps: competition with tritiated PG E2. The procedure: (§1) 'L'affinité des anticorps est étudiée en effectuant un essai radio-immunologique dit de compétition; on détermine l'importance relative de la fixation de PG E marquée au tritium et non marquée sur les anticorps monoclonaux à étudier pour des mélanges de ces PG E en quantités données; Pour cela, on fait incuber 12 heures à 4°C des quantités croissantes de PG E non marquée avec une dilution du surnageant de chaque puits dans lequel se développent des clones secréteurs, en présence de 10 pg de la même PG E mais tritiée; on calcule la dilution pour que 50% de la PG E tritiée se fixe sur les anticorps présents; les résultats obtenus sont représentés selon une courbe de Scatchard, d'où l'on déduit, de façon connue, la constante d'association de l'anticorps monoclonal à la PG E qui traduit l'affinité des anticorps pour leur antigène. La méthode de calcul de la constante d'association est décrite notamment dans Ann. N.Y. Acad. Sci.5l, p.660-672 (1949).
(§2) La spécificité des anticorps est étudiée en effectuant le même type d'essai radioimmunologique de compétition lors de la fixation sur l'anticorps monoclonal anti-PG E à étudier, mais la compétition a lieu entre la PG E tritiée correspondant à l'anticorps préparé et d'autres prostaglandines.
(§3) On mesure l'affinité et la spécificité des anti-corps secrétés dans le surnageant, par les méthodes radio-immunologiques de compétition de liaison précédemment décrites.

For experiment [2], the system named is anticorps monoclonal anti-PG E2 secrété par les hybridomes 8E57 (CNCM 1-254). Described as above. Conditions: 12 h at 4°C; for quantité qu'il faut pour déplacer 2,5 pg de PG E2 tritiée de sa liaison à l'anticorps: competition with tritiated PG E2. The procedure: as §1, §2, §3
The target in experiment [3] is anticorps monoclonal anti-PG E1 de la lignée d'hybridomes 36-F-20 (36F20, CNCM I-403), type IgG 1 Kapa. The experiment in a line: competition radioimmunoassay (affinity, Scatchard plot). The note with it: association constant for PG E1; 720 min; read-out: constante d'affinité (converted). The procedure:
as §1

The target in experiment [4] is anticorps monoclonal anti-PG E2 de la souche 38-200.10 (CNCM I-401), type IgGl Kapa. The experiment is described as above. Conditions: association constant for PG E2; 720 min; read-out: constante d'affinité (converted). As for the experimental part: as §1, §3
Experiment [5] addresses anticorps monoclonal anti-PG E2 de la souche 42-61-48.46 (CNCM I-402). Described as above. Conditions: association constant for PG E2; 720 min; read-out: constante d'affinité (converted). As for the experimental part: as §1, §3
[6] abbreviates: association constant for PG E2, 10 pg tritiated PG E2.

For `CCCCC[C@H](O)/C=C/[C@H]1[C@H](O)CC(=O)[C@@H]1CC(=O)CCCCC(=O)O` [6-céto-PG E1], the “quantité qu'il faut pour déplacer 2,5 pg de PG E2 tritiée liée à l'anticorps” value in experiment [1] came to 1000 pg. Further, the “quantité qu'il faut pour déplacer 2,5 pg de PG E2 tritiée de sa liaison à l'anticorps” value in experiment [2] came to 350 pg.

With `CCCCC[C@H](O)/C=C/[C@H]1C=CC(=O)[C@@H]1C/C=C\CCCC(=O)O` [PG A2], the “quantité qu'il faut pour déplacer 2,5 pg de PG E2 tritiée liée à l'anticorps” value in experiment [1] is listed as 50 000 pg. For the same compound, in experiment [2], the “quantité qu'il faut pour déplacer 2,5 pg de PG E2 tritiée de sa liaison à l'anticorps” value is reported as above 500 pg.

As to `CCCCC[C@H](O)/C=C/C1=C(C/C=C\CCCC(=O)O)C(=O)CC1` [PG B2], the “quantité qu'il faut pour déplacer 2,5 pg de PG E2 tritiée liée à l'anticorps” value in experiment [1] is 500 000 pg. Further, the “quantité qu'il faut pour déplacer 2,5 pg de PG E2 tritiée de sa liaison à l'anticorps” value in experiment [2] is on record as > 10 000 pg.

`CCCCC[C@H](O)/C=C/[C@H]1[C@H](O)CC(=O)[C@@H]1CCCCCCC(=O)O` [PG E1]: in experiment [1], the “quantité qu'il faut pour déplacer 2,5 pg de PG E2 tritiée liée à l'anticorps” value turned out to be 350 pg. For the same compound, the “quantité qu'il faut pour déplacer 2,5 pg de PG E2 tritiée de sa liaison à l'anticorps” value in experiment [2] stood at 70 pg. The Kd in experiment [3] was 0.05 nM.

`CCCCC[C@H](O)/C=C/[C@H]1[C@H](O)CC(=O)[C@@H]1C/C=C\CCCC(=O)O` [PG E2]: the Kd was 0.11 nM in experiment [4] and 0.222 nM in experiment [5]. In addition, the “constante d'affinité Ka” value in experiment [1] (setting [6]) was 5e+09 M⁻¹; in experiment [2] (setting [6]), 10^10 M^-1. The “quantité qu'il faut pour déplacer 2,5 pg de PG E2 tritiée liée à l'anticorps” value in experiment [1] amounted to 80 pg. The “quantité qu'il faut pour déplacer 2,5 pg de PG E2 tritiée de sa liaison à l'anticorps” value in experiment [2] is on record as 40 pg.

Turning to `CCCCC[C@H](O)/C=C/[C@@H]1[C@@H](CCCCCCC(=O)O)[C@@H](O)C[C@H]1O` [PG Flalpha], the “quantité qu'il faut pour déplacer 2,5 pg de PG E2 tritiée liée à l'anticorps” value in experiment [1] was 40 000 pg.

Values taken from patent publication EP0148075A2, “Anti-PGE specific monoclonal antibodies, their preparation and their biological applications” (INSTITUT PASTEUR, priority 1983, dated 1985).
